Consider two molecules from patent publication US8974815B2, “Fibrous membrane for biomedical application based on poly(ester-amide)s” (Cornell University, priority 2005, dated 2015).

Data set [1] in a line: In vitro release of 4-amino-TEMPO in PBS medium (ESR). Format: physicochemical. The method, then:
(§1) The in vitro release of 4-amino-TEMPO nitroxyl radicals from electrospun PEA fibers was investigated by immersing ˜300 mg 8-Phe-4 electrospun nano fibrous mat into a glass vial filled with 5 mL of 0.1M phosphate buffer solution of pH=7.42. The 8-Phe-4 nano fibrous mat was pre-loaded with 4-amino-TEMPO at a 10.0 mg 4-amino-TEMPO per g 8-Phe-4 and electrospun from a 39% wt/vol 8-Phe-4 solution in the mixture solvent of chloroform and DMF at volume ratio of 2 to 1. The glass vial was then placed in a water bath shaker maintained at 37° C. and 100 cycles/min. 10 μl of supernant of the vial was taken at a determined time and the amount of 4-amino-TEMPO nitroxyl radicals was measured by electron spin resonance (ESR) as a function of incubation time.
(§2) Three samples were taken for each measurement and the average results were reported. The ESR spectra at X-band were obtained from a Bruker 200D SRC spectrometer operating at 9.6 GHz, using 100 KHz modulation. The ESR signal intensity which is proportional to the mass of 4-amino-TEMPO nitroxyl free radical was obtained by a double integration of the recorded first derivative signals. A linear correlation (γ^2=0.9996) between the ESR signal intensity and the mass of nitroxyl radical ranging from 1.67 μg to 0.05 μg was obtained. The actual amount of 4-amino-TEMPO nitroxyl radicals loaded into the electrospun fibers was also determined by a complete dissolution of 8-Phe-4/4-amino-TEMPO electrospun fibrous membranes in DMF and the actual pre-loaded 4-amino-TEMPO amount within 8-Phe-4 fibers was calculated from the established calibration curve. The nitroxyl radicals released was measured in triplicates and expressed in the percentage of the initial pre-loaded amounts in the 8-Phe-4 fibers.

Data set [2] has as its target α-chymotrypsin (Bos taurus, UniProt P00766). As to the kind of experiment: In vitro release of 4-amino-TEMPO in α-chymotrypsin solution (ESR). The class given is in vitro ADME. As for the experimental part:
as §1, §2
4-amino-TEMPO was physically pre-loaded into the 640 nm 8-Phe-4 electrospun fibers at a loading level of 10.0 mg TEMPO per gram of 8-Phe-4. Since 4-amino-TEMPO is a free radical, the actual amounts of 4-amino-TEMPO loaded into the 8-Phe-4 electrospun nanofibers and its subsequently release from the fibers in either PBS buffer or a α-chymotrypsin solution (0.1 mg/mL α-chymotrypsin) were quantified by ESR.

Data set [3] is described as follows: Gallium nitrate release from 8P4 fabric (conductivity). Format: physicochemical. The following applies: from 8P4 fabric at 1.2, 1.0 and 0.2 g gallium nitrate per g 8P4; water extraction. As for the experimental part:
In order to determine release profiles of gallium nitrate from the fabric, a calibration curve was prepared as follows: Solutions of known concentrations of gallium nitrate in chloroform (not completely dissolved) were extracted with 10-mL deionized water. The electrical resistance of the aqueous solutions from extraction was measured. A calibration curve was constructed based on conductivity (inverse of measured resistance) and known concentration of gallium nitrate.
Drug release was established at 1, 2, 3, 4, 5, 8, 12, 18 and 28 days by extraction with water and measuring conductivity and generating gallium nitrate release profiles for 1.2 grams of gallium nitrate per gram (8P4), 1.0 gram of gallium nitrate per gram (8P4) and 0.2 am of gallium nitrate per gram (8P4). In each case there was a burst of drug release within the first 5 days.

SMILES strings stand for the structures.

For the molecule `CC1(C)CC(N)CC(C)(C)N1[O]` [4-amino-TEMPO, 4-amino-2,2,6,6-tetramethylpiperadine-1-oxy radical], the “slope of the initial linear part of the release profile” value is listed as 2.0 %/day in data set [1] (PBS medium alone, 37° C.) and 72 %/day in data set [2] (0.1 mg/mL α-chymotrypsin solution, 37° C.). Further, in data set [1] (after one month in PBS), the “4-amino-TEMPO still entrapped inside the 8-Phe-4 matrix” value is on record as “more than 60%”. In addition, in data set [1] (first day, from 640 nm 8-Phe-4 nanofibers, pH 7.42 PBS, 37° C.), the “initial burst release, of total loaded nitroxyl radical” value is reported as “about 14%”. Besides, the “residual nitroxyl radical in dissolved incubated membrane, of initial loading level” value in data set [1] (one-month incubated membrane dissolved in DMF, ESR) is recorded as “about 58%”. For the same molecule, the “release slope in α-chymotrypsin relative to PBS alone” value in data set [2] is reported as “more than 35 times”. Further, in data set [2] (within the 1st hr, α-chymotrypsin solution), the “incorporated TEMPO released” value is reported as “more than 23%”. In addition, the “time to complete release” value in data set [2] (α-chymotrypsin solution) is no more than 120 h.
With `O=[N+]([O-])[O-].O=[N+]([O-])[O-].O=[N+]([O-])[O-].[Ga+3]` [gallium nitrate, Gallium (III) nitrate hydrate], the “period of burst of drug release” value in data set [3] was no more than 5 days.
